Patent US20130231291A1, “FERMENTED SOYA BASED MIXTURE COMPRISING ISOFLAVONES- AGLICONES, EQUOL AND LUNASIL, PROCESS FOR THE PREPARATION AND USES THEREOF IN FOOD, MEDICAL AND COSMETIC FIELDS” (priority 2010, published 2013)

Assays:
Assay type in all cases: cell-based, human
[1] = system: Caco-2/TC7 cells; experiment: Nitric oxide (NO) release, Griess reagent; conditions: pre-treated 24 h at 10 μM (soya milk: equol 10 μM), then IFN-γ 1000 U/ml + LPS 100 ng/ml for 24 h
Experimental: The cells have been pre-treated for 24 h with chemical compounds (10 μM) used as standards (equol, daidzein, genistein and glycitein) and soya milk, obtained from biological soya flour, not fermented or fermented using mixed selected starter, diluted at equol final concentration of 10 μM and sterile filtered. Successively, the cells have been stimulated with γ-interpheron (IFN-γ) (1000 U/ml) and lipopolysaccharide (LPS) (100 ng/ml) for 24 h. DMEM culture medium containing DMSO (1%, v/v) or methanol (0.5%, v/v) has been used as negative control. Data are the average of three triplicate experiments. Asterisk indicates meaningful differences (P<0.01) compared to negative control.
The nitric oxide release (NO) from Caco-2/TC7 cells has been determined by measuring the oxidation products, i.e. nitrite and nitrate. After incubation with the different preparations, the supernatant of cell cultures has been mixed with an equal volume of Griess reagent (1%, p/v, sulfanilic acid in 0.5 M HCl and 0.1%, p/v, N-1-naphthylethylendiamine hydrochloride). After 30 min of incubation at room temp., the absorbance at 540 nm has been measured Nitrite concentration has been determined with reference to standard curve prepared with sodium nitrite.
Preliminarily, Caco-2/TC7 cells have been treated for 24 h at concentration of 10 μM with the OFS fermented soya milk and diluted at equol final concentration of 10 μM or with not fermented soya milk. […] Successively, Caco-2/TC7 cells have been stimulated with INF-γ (1000 U/ml) e LPS (100 ng/ml) per 24 h.

[2] = system: Caco-2/TC7 cells; experiment: TEER of Caco-2/TC7 cell layer; conditions: for TEER of cells stimulated with IFN-γ: IFN-γ 1000 U/ml, 24, 48 and 72 h, soya milk diluted at equol 10 μM
Experimental: The incubation has been carried out in the presence of γ-interpheron (IFN-γ) (1000 U/ml (-▪-); IFN-γ and soya milk, obtained from biological soya flour, not fermented (-Δ-) or fermented with the selected mixed starter, diluted at equol final concentration of 10 μM and sterile filtered. (-x-). DMEM culture medium has been used as negative control (-♦-). Data are the average of three triplicate experiments. Asterisk indicates meaningful differences (P<0.01) compared to negative control.
For TEER measurement Caco-2/TC7 cells have been inoculated (7.5×10^4 cell/ml) in a microplate container with 24 […] and a polyethylene filter (0.4 μm pore size). Before the treatment, the cells have been incubated for 21 days at 37° C. […] Integrity of cellular layer then has been determined by means of TEER measurements.
Under culture conditions of this study, Caco-2/TC7 cells develop morphological and functional characteristics of enterocytes, including tight intercellular junctions, integrity thereof being measured by TEER determination. Preliminarily, TEER has been determined in the presence of standard chemical compounds (10-100 μM), fermented OFS soya milk and diluted at equol concentration of 10 μM, or not fermented OFS soya milk. […] Treatments of Caco-2/TC7 cells with INF-γ (1000 U/ml) favoured a remarkable decrease (P<0.003) of TEER value (FIG. 6).

[3] = system: interleukin-8 (IL-8) from Caco-2/TC7 cells; experiment: Interleukin-8 release by ELISA after IL-1β stimulation; conditions: IL-1β 2 ng/ml for 24 h, then 24 h treatment at 10 μM (soya milk: equol 10 μM)
Experimental: DMEM culture medium containing DMSO (1%, v/v) or methanol (0.5%, v/v) has been used as negative control. Data are the average of three triplicate experiments. Asterisk indicates meaningful differences (P<0.01) compared to negative control.
For measurement of released interleukin-8 (IL-8) Caco-2/TC7 cells have previously been incubated (24 h) with interleukin-1β and then stimulated for further 24 h with the different preparations. The synthesis of pro-inflammatory IL-8 has been determined by ELISA assay (Bender MedSystems). The quantification has been carried out using a standard curve according to .kit instructions
Interleukin-8 (IL-8) is a member of C—X—C chemokine family and plays a fundamental role in activation of neutrophil cells, thus initiating the inflammatory response. When Caco-2/TC7 cells are subjected to a treatment with inteleukin-1β (2 ng/ml) has been observed a meaningful increment (P<0.001) of IL-8 synthesis (FIG. 7).

[4] = system: Caco-2/TC7 cells; experiment: Neutral Red uptake cytotoxicity assay; conditions: standard chemical compounds 5-100 μM; vs methanol and DMSO negative control
Experimental: Human origin Caco-2 cells (clone TC7) have been cultured in Dulbecco (DMEM) medium, added with bovine foetal serum (10%), not essential amino acids (1%), gentamycin/streptomycin (50 μg/ml), glutamine (2 mM) and 4-2-hydroxyethyl-1-piperazinyl-ethanesulfonic acid (1%) (Di Cagno et al., 2010. Quorum sensing in sourdough Lactobacillus plantarum DC400: induction of plantaricin A (PlnA) under co-cultivation with other lactic acid bacteria and effect of PlnA on bacterial and Caco-2 cells. Proteomics in press). The cells viability has been determined by uptake assay of Neutral Red dye (Balls et al., 1987. Approaches to validation alternative methods in toxicology. In: Goldber A. M. (Ed). N.Y. Academic Press pp. 45-58). After treatment for 24-72 h with the different preparations, the cells have been washed with PBS buffer and incubated for 4 h at 37° C. with Neutral Red solution (33 mg/l). […] Plate reading has been carried out using Novapath reader (Biorad, Hercules, Calif.) (Di Cagno et al., 2010).
With the purpose to test immunomodulating properties of isoflavones-aglicones contained in soya milk produced from biological soya flour (OFS), cytotoxicity against Caco-2/TC7 cells by standard chemical compounds (equol, daidzein, genistein and glycitein) at concentrations of 5-100 μM using Neutral Red (NR) uptake assay, firstly has been evaluated.

## O=c1c(-c2ccc(O)cc2)coc2cc(O)ccc12 [daidzein]
[1]
  NO release after IFN-γ and LPS stimulation: significantly increased
[2]
  TEER of cells stimulated with IFN-γ: has not interfered with the negative effect caused by INF-γ
[3]
  IL-8 synthesis: meaningful decrement

## Oc1ccc([C@H]2COc3cc(O)ccc3C2)cc1 [equol]
[1]
  NO release after IFN-γ and LPS stimulation: inhibited in a marked manner
[2]
  TEER of cells stimulated with IFN-γ: trend similar to fermented OFS soya milk
[2]; equol at 100 μM, 72 h of incubation
  effects on TEER without IFN-γ: exception
[3]
  IL-8 synthesis: meaningful decrement

## O=c1c(-c2ccc(O)cc2)coc2cc(O)cc(O)c12 [genistein]
[4]
  cell proliferation (Neutral Red uptake): did not affect significantly cell proliferation
[1]
  NO release after IFN-γ and LPS stimulation: considerable inhibition
[2]
  TEER of cells stimulated with IFN-γ: trend similar to fermented OFS soya milk
[3]
  IL-8 synthesis: did not resulted in (P<0.10) a decrement

## COc1cc2c(=O)c(-c3ccc(O)cc3)coc2cc1O [glycitein]
[1]
  NO release after IFN-γ and LPS stimulation: considerable inhibition
[2]
  TEER of cells stimulated with IFN-γ: trend similar to fermented OFS soya milk
[3]
  IL-8 synthesis: did not resulted in (P<0.10) a decrement
